# Results reported in US20260091050A1, “ADVANTAGEOUS ANTI-HCV COMBINATION THERAPY” (Atea Pharmaceuticals, Inc., priority 2021, published 2026).
# Experiments:
# GT1 HCV = test: Multiple dose study, 7 days QD, non-cirrhotic GT1 HCV-infected patients (Part C); format: in vivo, human
# Procedure: Doses were administered as the Compound 1-A salt base. The free base Compound 1 equivalent is often given in parenthesis.
# (§1) Part C was a randomized, double-blind, placebo-controlled MAD study divided into three cohorts. […] The dose escalation only proceeded following satisfactory review of the data.
# HCV-infected patients were treatment-naïve with HCV RNA ≥5 log 10 IU/mL. HCV RNA was quantified using COBAS® AmpliPrep TaqMAN® v2.0 with LLQ of 15 IU/mL. Plasma drug levels were measured using LC-MS/MS. […] Mean ages of enrolled subjects were 44, 39, and 56 years in the non-cirrhotic GT1b 600 mg dose cohort, non-cirrhotic GT3 cohort, and the cirrhotic cohort, respectively.
# [1] = Plasma levels of Compound 1 and metabolites after single oral dose of Compound 1-A, monkey; format: in vivo; settings: for Compound 1 Tmax: Monkey, plasma
# [2] = Heart and liver tissue levels of active triphosphate 4 hours after oral Compound 1-A, monkey; format: in vivo; settings: 4 hours after single oral dose
# Procedure: High levels of the active TP were measured in the liver of all species tested.
# [3] = Chemical stability of Compound 1-A at 25° C./60% RH and 40° C./75% RH over 6 months; format: physicochemical; settings: for Increase of percent of water: over 6 months
# Procedure: The container closure system for the study was a combination medicinal valve bag with a pharmaceutical laminated film over the pouch and desiccant silica gel between the two layers. […] Bags were then stored at 25° C./60% RH (relative humidity) and 40° C./75% RH (relative humidity). Organic purity, water content, ^1HNMR, DSC and Raman were measured at Time 0, Month 1, Month 2, Month 3 and Month 6.
# The sample was dissolved in acetonitrile—water (90:10) (v/v). The gradient method is shown below.
# [4] = Plasma levels of Compound 1 and metabolites after single oral dose of Compound 1-A, dog; format: in vivo
# [5] = Ambient stability (25 ± 2° C./60 ± 5% RH) of Compound 1-A over 9 months; format: physicochemical
# Procedure: Three conditions were tested: accelerated stability (40±2° C./[…]) over a 6-month time period, ambient stability (25±2° C./[…]) over a 9-month period, and stability under refrigerator conditions (5±3° C.) over a 9-month time period. The results for accelerated stability, ambient stability, and refrigerator conditions are shown in Table 23, Table 24, and Table 25, respectively.
# [6] = Three-part study (Parts C, D, E) of Compound 1-A: overall safety/tolerability and pharmacokinetics; format: in vivo, human
# Procedure: as §1
# HCV-infected patients were treatment-naïve with HCV RNA ≥5 log 10 IU/mL. […] Plasma drug levels were measured using LC-MS/MS.
# [7] = Solubility in biorelevant test medias (water, SGF, FaSSIF, FeSSIF); settings: for Appearance: solubility test; for Descriptive term: solubility
# [8] = 600 mg of Compound 1-A, GT1, non-cirrhotic (n = 6)
# [9] = 25° C., Month 1, compared with Day 0
# [10] = 25° C., Month 2, compared with Day 0
# [11] = 25° C., Month 3, compared with Day 0
# [12] = 25° C., Month 6, compared with Day 0
# [13] = 40° C., Month 1, compared with Day 0
# [14] = 40° C., Month 2, compared with Day 0
# [15] = 40° C., Month 3, compared with Day 0
# [16] = 40° C., Month 6, compared with Day 0
# [17] = Dog, 30 mg/kg single oral dose, plasma
# [18] = 25 ± 2° C./60 ± 5% RH, 1st month
# [19] = 25 ± 2° C./60 ± 5% RH, 3rd month
# [20] = 25 ± 2° C./60 ± 5% RH, 6th month
# [21] = 25 ± 2° C./60 ± 5% RH, 9th month
smiles,measurement,setting,value
"CNc1nc(N)nc2c1ncn2[C@@H]1O[C@H](CO[P@@](=O)(N[C@@H](C)C(=O)OC(C)C)Oc2ccccc2)[C@@H](O)[C@@]1(C)F [Compound 1-A, isopropyl ((S)-(((2R,3R,4R,5R)-5-(2-amino-6-(methylamino)-9H-purin-9-yl)-4-fluoro-3-hydroxy-4-methyltetrahydrofuran-2-yl)methoxy) (phenoxy)phosphoryl)-L-alaninate hemisulfate]",subjects achieving HCV RNA <LOQ,"GT1 HCV; 600 mg QD, non-cirrhotic GT1b, LOQ=15 IU/mL",50%
same,Mean Max Reduction,GT1 HCV; [8],4.4 log10 IU/mL
same,Mean Reduction After 24 hours,GT1 HCV; [8],2.1 log10 IU/mL
same,HCV RNA < LOQ (15 IU/mL),"GT1 HCV; 600 mg of Compound 1-A, GT1, non-cirrhotic (n = 6), subjects/total",3/6
same,Compound 1 Tmax,[1]; 30 mg/kg single oral dose,30 to 120 min
same,Compound 1 Tmax,[1]; 100 mg/kg single oral dose,60 to 120 min
same,vomiting (animals affected),"[1]; monkeys, high dose group",⅕
same,active TP (metabolite 1-6) level in heart,[2],unquantifiable levels
same,active TP (metabolite 1-6) level in liver,[2],High levels
same,Maximum Impurity Percent,"[3]; 25° C., Day 0",0.12%
same,Percent Purity,"[3]; 25° C., Day 0",99.82%
same,Percent Water,"[3]; 25° C., Day 0",1.2%
same,Maximum Impurity Percent,"[3]; 25° C., Month 1",0.12%
same,Percent Purity,"[3]; 25° C., Month 1",99.77%
same,Percent Water,"[3]; 25° C., Month 1",1.9%
same,DSC,[3]; [9],The same
same,Raman,[3]; [9],The same
same,^1HNMR,[3]; [9],The same
same,Maximum Impurity Percent,"[3]; 25° C., Month 2",0.12%
same,Percent Purity,"[3]; 25° C., Month 2",99.75%
same,Percent Water,"[3]; 25° C., Month 2",1.8%
same,DSC,[3]; [10],The same
same,Raman,[3]; [10],The same
same,^1HNMR,[3]; [10],The same
same,Maximum Impurity Percent,"[3]; 25° C., Month 3",0.12%
same,Percent Purity,"[3]; 25° C., Month 3",99.75%
same,Percent Water,"[3]; 25° C., Month 3",1.8%
same,DSC,[3]; [11],The same
same,Raman,[3]; [11],The same
same,^1HNMR,[3]; [11],The same
same,Maximum Impurity Percent,"[3]; 25° C., Month 6",0.13%
same,Percent Purity,"[3]; 25° C., Month 6",99.74%
same,Percent Water,"[3]; 25° C., Month 6",1.8%
same,DSC,[3]; [12],The same
same,Raman,[3]; [12],The same
same,^1HNMR,[3]; [12],The same
same,Increase of percent of water,[3]; 25° C.,approximately 0.6%
same,Maximum Impurity Percent,"[3]; 40° C., Day 0",0.12%
same,Percent Purity,"[3]; 40° C., Day 0",99.82%
same,Percent Water,"[3]; 40° C., Day 0",1.2%
same,Maximum Impurity Percent,"[3]; 40° C., Month 1",0.12%
same,Percent Purity,"[3]; 40° C., Month 1",99.71%
same,Percent Water,"[3]; 40° C., Month 1",2.0%
same,DSC,[3]; [13],The same
same,Raman,[3]; [13],The same
same,^1HNMR,[3]; [13],The same
same,Maximum Impurity Percent,"[3]; 40° C., Month 2",0.12%
same,Percent Purity,"[3]; 40° C., Month 2",99.63%
same,Percent Water,"[3]; 40° C., Month 2",1.9%
same,DSC,[3]; [14],The same
same,Raman,[3]; [14],The same
same,^1HNMR,[3]; [14],The same
same,Maximum Impurity Percent,"[3]; 40° C., Month 3",0.12%
same,Percent Purity,"[3]; 40° C., Month 3",99.58%
same,Percent Water,"[3]; 40° C., Month 3",1.9%
same,DSC,[3]; [15],The same
same,Raman,[3]; [15],The same
same,^1HNMR,[3]; [15],The same
same,Maximum Impurity Percent,"[3]; 40° C., Month 6",0.14%
same,Percent Purity,"[3]; 40° C., Month 6",99.30%
same,Percent Water,"[3]; 40° C., Month 6",1.9%
same,DSC,[3]; [16],The same
same,Raman,[3]; [16],The same
same,^1HNMR,[3]; [16],The same
same,Increase of percent of water,[3]; 40° C.,approximately 0.7%
same,Compound 1 Cmax,[4]; [17],1530 ng/mL
same,Tmax,[4]; [17],15 to 60 min
same,Compound 1 Tmax,"[4]; Dog, 100 mg/kg single oral dose, plasma",30 to 60 min
same,vomiting (animals affected),"[4]; dogs, high dose group",5/5
same,Appearance,"[5]; 25 ± 2° C./60 ± 5% RH, 0 month",White
same,Assay,"[5]; 25 ± 2° C./60 ± 5% RH, 0 month",98.8%
same,IR,"[5]; 25 ± 2° C./60 ± 5% RH, 0 month",correspond
same,Related Substance 1 Any other single impurity,"[5]; 25 ± 2° C./60 ± 5% RH, 0 month",0.01%
same,Related Substance 1 Total Impurities,"[5]; 25 ± 2° C./60 ± 5% RH, 0 month",0.01%
same,Water,"[5]; 25 ± 2° C./60 ± 5% RH, 0 month",0.45%
same,Appearance,[5]; [18],White
same,Assay,[5]; [18],101.1%
same,Related Substance 1 Any other single impurity,[5]; [18],0.01%
same,Related Substance 1 Total Impurities,[5]; [18],0.02%
same,Water,[5]; [18],0.19%
same,Appearance,[5]; [19],White
same,Assay,[5]; [19],99.6%
same,IR,[5]; [19],correspond
same,Related Substance 1 Any other single impurity,[5]; [19],0.03%
same,Related Substance 1 Impurity B,[5]; [19],0.03%
same,Related Substance 1 Impurity F,[5]; [19],0.02%
same,Related Substance 1 Total Impurities,[5]; [19],0.11%
same,Water,[5]; [19],0.29%
same,Appearance,[5]; [20],White solid
same,Assay,[5]; [20],99.7%
same,IR,[5]; [20],correspond
same,Related Substance 1 Any other single impurity,[5]; [20],0.02%
same,Related Substance 1 Impurity F,[5]; [20],0.01%
same,Related Substance 1 Total Impurities,[5]; [20],0.05%
same,Water,[5]; [20],0.46%
same,Appearance,[5]; [21],Off-white
same,Assay,[5]; [21],100.9%
same,IR,[5]; [21],correspond
same,Related Substance 1 Any other single impurity,[5]; [21],0.02%
same,Related Substance 1 Total Impurities,[5]; [21],0.02%
same,Water,[5]; [21],0.20%
same,percentage of water,[5]; after 9 months,0.2000
same,total related substance 1 impurities,[5]; after 9 months,0.02%
same,impact of mild hepatic impairment on PK,[6]; based on plasma exposures,did not significantly impact
same,low-grade lipid abnormalities (cholesterol and triglyceride increase),[6]; compared to placebo,higher incidence
same,tolerability,[6]; up to 600 mg salt form for seven days,well tolerated
same,Appearance,[7]; FaSSIF,Turbid
same,Appearance,[7]; FeSSIF,Turbid
same,Appearance,[7]; SGF,Turbid
same,Appearance,[7]; Water,Turbid
same,Descriptive term,[7]; FaSSIF,Slightly
same,Descriptive term,[7]; FeSSIF,Slightly
same,Descriptive term,[7]; SGF,Soluble
same,Descriptive term,[7]; Water,Soluble
